The numbers were not newly measured in article PMC7643960 (PLoS ONE, 2020), which cites them from elsewhere.

The test system of this data set is healthy horses. Conditions: 1% NVX-207 twice a day for seven consecutive days, eight healthy horses; cited from earlier work.

For the compound `C=C(C)[C@@H]1CC[C@]2(C(=O)O)CC[C@]3(C)[C@H](CC[C@@H]4[C@@]5(C)CC[C@H](O)C(C)(C)[C@@H]5CC[C@]43C)[C@@H]12` [betulinic acid, reference compound], the “tolerability after topical application” value is “no compound-related local adverse effects”.
